Source: patent publication US20040254162A1, “Oxazolidinone derivatives as antimicrobials” (priority 2001, published 2004)
Converted amounts (≈) assume the structure as drawn.

How the values were obtained:
[1] = test system: Fusobacterium necrogenes; assay: Agar dilution MIC, anaerobes; assay type: cell-based; settings: Fusobacterium necrogenes; single isolate, anaerobic agar dilution; read-out: MIC Fusobacterium necrogenes
[2] = test system: Clostridium camis; assay: Agar dilution MIC, anaerobes; assay type: cell-based; settings: Clostridium; single isolates, anaerobic agar dilution; read-out: MIC Clostridium camis
[3] = test system: Prevotella intermedia; assay: Agar dilution MIC, anaerobes; assay type: cell-based; settings: Prevotella intermedia, single isolates, anaerobic agar dilution; read-out: MIC Prevotella intermedia
[4] = test system: Prevotella melaninogenica; assay: Agar dilution MIC, anaerobes; assay type: cell-based; settings: Prevotella melaninogenica, single isolates, anaerobic agar dilution; read-out: MIC Prevotella melaninogenica
[5] = test system: Clostridium difficile; assay: Agar dilution MIC, anaerobes; assay type: cell-based; settings: single isolates, anaerobic agar dilution; for MIC: Clostridioides difficile, read-out: MIC Clostridium difficile
[6] = test system: Prevotella bivia; assay: Agar dilution MIC, anaerobes; assay type: cell-based; settings: Prevotella bivia; single isolate, anaerobic agar dilution; read-out: MIC Prevotella bivia
[7] = test system: Peptostreptococcus prevotii; assay: Agar dilution MIC, anaerobes; assay type: cell-based; settings: single isolates, anaerobic agar dilution; for MIC: Anaerococcus prevotii, read-out: MIC Peptostreptococcus prevotii
[8] = test system: P. acnes; assay: Agar dilution MIC, anaerobes; assay type: cell-based; settings: single isolates, anaerobic agar dilution; for MIC: Cutibacterium acnes, read-out: MIC P. acnes
[9] = test system: anaerobic bacteria; assay: Agar dilution method for anaerobic bacteria, summary; assay type: cell-based; settings: for MIC50 / MIC90: 48 h; for Geometric Mean / MIC Range: anaerobes
[10] = test system: Clostridium perfringens; assay: microbe, parasite or virus in culture; assay type: cell-based
[11] = test system: Porphyromonas gingivalis; assay: Agar dilution MIC, anaerobes; assay type: cell-based; settings: Porphyromonas gingivalis; single isolate, anaerobic agar dilution; read-out: MIC Porphyromonas gingivalis
[12] = test system: Porphyromonas asaccharolytica; assay: Agar dilution MIC, anaerobes; assay type: cell-based; settings: Porphyromonas asaccharolytica; single isolate, anaerobic agar dilution; read-out: MIC Porphyromonas asaccharolytica
[13] = test system: Prevotella (Bacteroides) disiens; assay: Agar dilution MIC, anaerobes; assay type: cell-based; settings: single isolates, anaerobic agar dilution; for MIC: read-out: MIC Prevotella (Bacteroides) disiens
[14] = test system: Eubacterium leutum; assay: Agar dilution MIC, anaerobes; assay type: cell-based; settings: single isolates, anaerobic agar dilution; for MIC: Eubacterium, read-out: MIC Eubacterium leutum
[15] = test system: Peptostreptococcus micros; assay: Agar dilution MIC, anaerobes; assay type: cell-based; settings: Parvimonas micra, single isolates, anaerobic agar dilution; read-out: MIC Peptostreptococcus micros
[16] = test system: Fusobacterium nucleatum; assay: Agar dilution MIC, anaerobes; assay type: cell-based; settings: single isolates, anaerobic agar dilution; for MIC: Fusobacterium nucleatum, read-out: MIC Fusobacterium nucleatum
[17] = test system: Fusobacterium varium; assay: Agar dilution MIC, anaerobes; assay type: cell-based; settings: single isolates, anaerobic agar dilution
[18] = test system: Peptostreptococcus tetradius; assay: Agar dilution MIC, anaerobes; assay type: cell-based; settings: Anaerococcus tetradius, single isolates, anaerobic agar dilution; read-out: MIC Peptostreptococcus tetradius
[19] = test system: Peptostreptococcus asaccharolyticus; assay: Agar dilution MIC, anaerobes; assay type: cell-based; settings: single isolates, anaerobic agar dilution
[20] = test system: Fusobacterium montiferum; assay: Agar dilution MIC, anaerobes; assay type: cell-based; settings: single isolates, anaerobic agar dilution
[21] = test system: Bacteroides fragilis; assay: Agar dilution MIC, anaerobes; assay type: cell-based; settings: single isolates, anaerobic agar dilution
[22] = test system: S. aureus ATCC 25923; assay: MIC, agar incorporation method; settings: agar incorporation
[23] = test system: Strep. pne. ATCC 6303; assay: MIC, agar incorporation method; settings: agar incorporation
[24] = test system: G +ve bacteria; assay: Summary of in vitro activity (MIC)
[25] = test system: MRSA 562; assay: MIC, agar incorporation method; settings: MRSA 562; Table 5
[26] = test system: E. faecalis; assay: Summary of in vitro activity (MIC); settings: E. faecalis
[27] = test system: MRSA 562; assay: In vivo activity against MRSA 562 (ED50); set-up: species or system Methicillin Resistant Staphylococcus aureus; settings: PO; MRSA 562 infection
[28] = test system: S. pneumoniae; assay: Summary of in vitro activity (MIC); settings: S. pneumoniae
[29] = test system: MRSA 33; assay: MIC, agar incorporation method; settings: agar incorporation
[30] = test system: S. aureus; assay: Summary of in vitro activity (MIC); settings: S. aureus
[31] = test system: Strep. pyog. ATCC 19615; assay: MIC, agar incorporation method; settings: agar incorporation
[32] = test system: MRSA 15187; assay: MIC, agar incorporation method; settings: agar incorporation
[33] = test system: Ent. faecalis ATCC 29212; assay: MIC, agar incorporation method; settings: agar incorporation
[34] = test system: S. pneum AB 34; assay: MIC, agar incorporation method; settings: agar incorporation
[35] = test system: VRE 6A (Ent. faecium 6A); assay: MIC, agar incorporation method; settings: agar incorporation

Structure (SMILES): CCC[C@@H]1C[C@@H](C(=O)N[C@@H]([C@H]2O[C@H](SC)[C@H](O)[C@@H](O)[C@H]2O)[C@H](C)Cl)N(C)C1 [Clindamycin]
- MIC [1]: 0.03 µg/mL (≈ 0.0706 µM)
- MIC [2]: 0.03 µg/mL (≈ 0.0706 µM)
- MIC [3]: ≤ 0.016 µg/mL
- MIC [4]: ≤ 0.016 µg/mL
- MIC [5]: 2 µg/mL (≈ 4.71 µM)
- MIC Clostridium difficile [5]: 4 µg/mL (≈ 9.41 µM)
- MIC [6]: > 32 µg/mL
- MIC [7]: 0.25 µg/mL (≈ 0.588 µM)
- MIC Peptostreptococcus prevotii [7]: 0.125 µg/mL (≈ 0.294 µM)
- MIC [8]: 0.06 µg/mL (≈ 0.141 µM)
- MIC50 [9]: 0.125 µg/mL (≈ 0.294 µM)
- MIC90 [9]: 8 µg/mL (≈ 18.8 µM)
- Geometric Mean [9]: 0.208 µg/mL
- MIC Range [9]: 0.008 to 64 µg/mL
- MIC ([10]; Clostridium perfringens, read-out: MIC Clostridium perfringens, single isolates, anaerobic agar dilution): 1 µg/mL (≈ 2.35 µM)
- MIC Clostridium perfringens ([10]; single isolates, anaerobic agar dilution): 0.5 µg/mL (≈ 1.18 µM)
- MIC [11]: ≤ 0.016 µg/mL
- MIC [12]: ≤ 0.016 µg/mL
- MIC Prevotella (Bacteroides) disiens [13]: 4 µg/mL (≈ 9.41 µM)
- MIC [13]: 8 µg/mL (≈ 18.8 µM)

Structure (SMILES): C[C@@H](O)[C@H]1C(=O)N2C(C(=O)O)=C(SCCN=CN)C[C@H]12 [Imipenem]
- MIC [1]: 0.25 µg/mL (≈ 0.835 µM)
- MIC [2]: 0.06 µg/mL (≈ 0.2 µM)
- MIC [3]: ≤ 0.016 µg/mL
- MIC [4]: ≤ 0.016 µg/mL
- MIC [14]: 0.25 µg/mL (≈ 0.835 µM)
- MIC Eubacterium leutum [14]: 0.5 µg/mL (≈ 1.67 µM)
- MIC [5]: 4 µg/mL (≈ 13.4 µM)
- MIC [6]: 0.03 µg/mL (≈ 0.1 µM)
- MIC [7]: ≤ 0.016 µg/mL
- MIC [8]: ≤ 0.016 µg/mL
- MIC50 [9]: 0.064 µg/mL (≈ 0.214 µM)
- MIC90 [9]: 1 µg/mL (≈ 3.34 µM)
- Geometric Mean [9]: 0.084 µg/mL
- MIC Range [9]: 0.008 to 4 µg/mL
- MIC [15]: 0.03 µg/mL (≈ 0.1 µM)
- MIC [11]: ≤ 0.016 µg/mL
- MIC [16]: ≤ 0.016 µg/mL
- MIC [12]: 0.03 µg/mL (≈ 0.1 µM)
- MIC ([17]; Fusobacterium varium, read-out: MIC Fusobacterium varium): 0.5 µg/mL (≈ 1.67 µM)
- MIC Fusobacterium varium [17]: 1 µg/mL (≈ 3.34 µM)
- MIC [18]: 0.03 µg/mL (≈ 0.1 µM)

Structure (SMILES): COc1c(N2C[C@@H]3CCCN[C@@H]3C2)c(F)cc2c(=O)c(C(=O)O)cn(C3CC3)c12 [Moxifloxacin]
- MIC [1]: 1 µg/mL (≈ 2.49 µM)
- MIC [2]: 0.25 µg/mL (≈ 0.623 µM)
- MIC [3]: 0.5 µg/mL (≈ 1.25 µM)
- MIC [14]: 0.5 µg/mL (≈ 1.25 µM)
- MIC ([19]; Peptoniphilus asaccharolyticus): 0.125 µg/mL (≈ 0.311 µM)
- MIC Peptostreptococcus asaccharolyticus [19]: 0.25 µg/mL (≈ 0.623 µM)
- MIC ([20]; Fusobacterium, read-out: MIC Fusobacterium montiferum): 0.25 µg/mL (≈ 0.623 µM)
- MIC Fusobacterium montiferum [20]: 0.5 µg/mL (≈ 1.25 µM)
- MIC [7]: 0.25 µg/mL (≈ 0.623 µM)
- MIC [8]: 0.25 µg/mL (≈ 0.623 µM)
- MIC P. acnes [8]: 0.125 µg/mL (≈ 0.311 µM)
- MIC [11]: 0.03 µg/mL (≈ 0.0747 µM)
- MIC [16]: 0.125 µg/mL (≈ 0.311 µM)
- MIC Fusobacterium nucleatum [16]: 0.25 µg/mL (≈ 0.623 µM)
- MIC [12]: 0.5 µg/mL (≈ 1.25 µM)
- MIC ([21]; Bacteroides fragilis, read-out: MIC Bacteroides fragilis): 0.25 µg/mL (≈ 0.623 µM)
- MIC Bacteroides fragilis [21]: 0.5 µg/mL (≈ 1.25 µM)
- MIC [18]: 0.5 µg/mL (≈ 1.25 µM)
- MIC Prevotella (Bacteroides) disiens [13]: 0.5 µg/mL (≈ 1.25 µM)
- MIC [13]: 0.25 µg/mL (≈ 0.623 µM)

Structure (SMILES): CC(=O)NC[C@H]1CN(c2ccc(N3CCN(C(=O)c4ccc([N+](=O)[O-])o4)CC3)c(F)c2)C(=O)O1 [Compound No. 06, (S)-N-[[3-Fluoro-4-[N-1[4-(5-nitro-2-furoyl)piperazinyl]phenyl]-2-oxo-5-oxazolidinyl]methyl]acetamide]
- MIC S. aureus 25923 [22]: 1 µg/mL (≈ 2.1 µM)
- MIC S. pneum 6303 [23]: 2 µg/mL (≈ 4.21 µM)
- MIC50 ([24]; G +ve, Number 49): 1 µg/mL (≈ 2.1 µM)
- MIC90 ([24]; G +ve, Number 49): 2 µg/mL (≈ 4.21 µM)
- Geometric Mean of in vitro activity (MIC) ([24]; Gram + ve): 0.79 µg/mL
- MIC [25]: 1 µg/mL (≈ 2.1 µM)
- Geometric Mean of in vitro activity (MIC) [26]: 0.92 µg/mL
- MIC50 ([26]; Number 7): 1 µg/mL (≈ 2.1 µM)
- MIC90 ([26]; Number 7): 1 µg/mL (≈ 2.1 µM)
- ED50 (mg/kg body weight) PO [27]: >25 mg/kg body weight
- Geometric Mean of in vitro activity (MIC) [28]: 1.27 µg/mL
- MIC50 ([28]; Number 19): 2 µg/mL (≈ 4.21 µM)
- MIC90 ([28]; Number 19): 2 µg/mL (≈ 4.21 µM)
- MIC MRSA 33 [29]: 0.5 µg/mL (≈ 1.05 µM)
- Geometric Mean of in vitro activity (MIC) [30]: 0.74 µg/mL
- MIC50 ([30]; Number 8): 1 µg/mL (≈ 2.1 µM)
- MIC90 ([30]; Number 8): 1 µg/mL (≈ 2.1 µM)
- MIC S. pyogenes 19615 [31]: 2 µg/mL (≈ 4.21 µM)
- MIC MRSA 15187 [32]: 0.5 µg/mL (≈ 1.05 µM)
- MIC E. faecalis 29212 [33]: 1 µg/mL (≈ 2.1 µM)
- MIC S. pneum AB 34 [34]: 2 µg/mL (≈ 4.21 µM)
- MIC VRE 6A [35]: 1 µg/mL (≈ 2.1 µM)
